For seven compounds, Ki results are on record in BindingDB's records for doi:10.1016/j.ejmech.2013.03.032 (University of Messina, 2013).

The structures appear in SMILES notation.

The experiment has as its target T1, Proteasome subunit beta type-1 (Homo sapiens, UniProt P20618).
T1 sequence (P20618 whole entry): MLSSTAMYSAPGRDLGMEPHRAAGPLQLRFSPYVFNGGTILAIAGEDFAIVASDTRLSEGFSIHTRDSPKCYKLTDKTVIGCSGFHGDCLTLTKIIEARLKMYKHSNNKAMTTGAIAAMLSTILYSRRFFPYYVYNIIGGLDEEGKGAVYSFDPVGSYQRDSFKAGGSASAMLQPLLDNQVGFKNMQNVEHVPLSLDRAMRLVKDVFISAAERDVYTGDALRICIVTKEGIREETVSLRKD
Briefly: Inhibition of human 20S proteasome post-glutamyl peptide hydrolyzing activity using Z-Leu-Leu-Glu-AMC as substrate measured over 10 mins by fluorescence assay.

A word on the Ki: it is a dissociation constant, usually derived from enzyme kinetics or from competition with a known ligand.

Turning to `CC(C)C[C@H](NC(=O)Cn1ccc(N2CCOCC2)cc1=O)B(O)O`, the inhibitory constant (Ki) was determined as 0.52 µM.

For `CC(C)C[C@H](NC(=O)Cn1ccc(Nc2ccccc2)cc1=O)B(O)O`, the Ki is 5.14 µM. The compound `CC(C)C[C@H](NC(=O)Cn1ccc(N2CCCCC2)cc1=O)B(O)O` showed an inhibition constant (Ki) of 1.42 µM. The result for `CCN(CC)c1ccn(CC(=O)N[C@@H](CC(C)C)B(O)O)c(=O)c1` reads 4.42 µM; that for `CC(C)C[C@H](NC(=O)Cn1ccc2c(c1=O)CCCN2C)B(O)O`, 3.9 µM; that for `CC(C)C[C@H](NC(=O)[C@H](C)n1ccc2ncccc2c1=O)B(O)O`, 13.6 µM. In turn, `CC(C)C[C@H](NC(=O)Cn1ccccc1=O)B(O)O` registered a Ki of 1.38 µM.
